System: in vitro rat hearts
Experiment: Isolated perfused (Langendorff) rat heart, 25 min global ischemia and 180 min reperfusion: hemodynamics, infarct size, recovery of LVDP
Experimental: The study was directed to determining whether Tpo (0.01-10.0 ng/ml) confers immediate cardioprotection in rat hearts and the contribution of potassium channels to the underlying mechanism. Hearts from normoxic 8 week old Sprague Dawley rats (n=8/group) were isolated and perfused in the Langendorff mode. Hemodynamic function was recorded under steady-state conditions prior to 25 minutes global no flow ischemia and 180 minutes reperfusion.
Isolated heart perfusion. Isolated rat hearts were perfused with bicarbonate buffer at constant pressure in a retrograde manner and instrumented as described in Baker, et al., Am. J. Physiol. Heart Circulat. Physiol. 278:1395-1400, 2000 potassium channel blockers were added to this perfusate as needed. A 3-way tap, located immediately above the site of cannulation, allowed the entire perfusate to be diverted away from the heart to produce global, no-flow ischemia. Reperfusion was achieved by repositioning of the tap to allow perfusate to be delivered to the heart. Left ventricular function was monitored continuously throughout each experiment as described in Baker, et al., supra, 2000. End-diastolic pressure was initially set to 3 mmHg for 2 minutes. The balloon was then progressively inflated with a microsyringe to set end-diastolic pressures to 8 mmHg for the left ventricle, with developed pressure and heart rate recorded during steady-state conditions. Coronary flow rate was measured throughout the experiment by timed collections of the coronary effluent from the right side of the heart into a graduated cylinder. Coronary flow rate was expressed as milliliters per minute per gram wet weight.
Resistance to myocardial ischemia. Hearts from adult rats were perfused with bicarbonate buffer, and biventricular function was monitored continuously throughout each experiment as described in Baker, et al., supra, 2000. For concentration response studies, hearts were then perfused with Tpo (0.01-10.0 ng/ml) for 15 minutes prior to 25 minutes ischemia and 180 minutes reperfusion. For mechanism studies with potassium channel blockers, hearts were perfused with drugs for 15 minutes alone followed by 15 minutes in combination with Tpo prior to ischemia. Hearts perfused with potassium channel blockers alone in the absence of Tpo for 30 minutes prior to ischemia served as untreated controls for these studies. Recovery of post-ischemic left ventricular developed pressure was expressed as a percentage of its pre-drug, pre-ischemic value.
Assessment of ventricular function. Left ventricular function was monitored continuously throughout each experiment as described in Baker, et al., supra, 2000. Recovery of left ventricular pressure following ischemia was used to assess resistance to ischemia.
Measurement of infarct size/area at risk at 3 hours reperfusion were used to assess resistance to myocardial ischemia. For characterization of infarction size, hearts were perfused with 10 ml bicarbonate buffer containing triphenyltetrazolium chloride (SIGMA) at 37° C.
The heart was sectioned in 2 mm segments from apex to atrio-ventricular groove in a transverse fashion. Each segment was recorded and placed in formalin. After twenty-four (24) hours, the specimen was digitally photographed in a camera mount to normalize specimen-to-lens distance. Each photograph was then appended to Adobe Photoshop (Adobe™) to measure pixel density of infarcted versus non-infarcted areas. The percentage of infarction of each slide was expressed as a percentage of the entire area of the heart.
Hearts from male Sprague Dawley rats at 8 weeks of age were isolated and perfused with Tpo at 0.01, 0.1, 1.0, and 10 ng/ml for 15 minutes prior to 25 minutes global ischemia and 180 minutes reperfusion (FIG. 2). Tpo (1.0 ng/ml) reduced coronary flow rate prior to ischemia from 6±1 ml/min/g to 5±1 ml/min/g, increased left ventricular developed pressure from 119±15 mmHg to 151±19 mmHg and decreased heart rate from 240±34 beats/minute to 228±17 beats/minute. […]

[1] = POST DRUG, Tpo 0.01 ng/ml for 15 min
[2] = POST DRUG, Tpo 0.1 ng/ml for 15 min
[3] = POST DRUG, Tpo 1.0 ng/ml for 15 min
[4] = POST DRUG, Tpo 10.0 ng/ml for 15 min
[5] = REPERFUSION, Tpo 0.01 ng/ml, 25 min global ischemia, 180 min reperfusion
[6] = REPERFUSION, Tpo 0.1 ng/ml, 25 min global ischemia, 180 min reperfusion
[7] = REPERFUSION, Tpo 1.0 ng/ml, 25 min global ischemia, 180 min reperfusion
[8] = REPERFUSION, Tpo 10.0 ng/ml, 25 min global ischemia, 180 min reperfusion
[9] = Tpo 0.01-10.0 ng/ml for 15 min prior to 25 min global ischemia, 180 min reperfusion

With Thrombopoietin [Tpo] the “Infarct size following ischemia and reperfusion” value ('U' shaped concentration-dependent, Tpo 0.01-10.0 ng/ml) was “reduced”, the Coronary flow rate [1] was 5 ± 1 mL/min/g and the Heart rate [1] was 202 ± 16 beats/min. The “Left ventricle developed pressure” value [1] was 156 ± 13 mmHg, the Coronary flow rate [2] was 5 ± 1 mL/min/g and the Heart rate [2] was 233 ± 12 beats/min. The “Left ventricle developed pressure” value [2] was 158 ± 13 mmHg, the Coronary flow rate [3] was 5 ± 1 mL/min/g and the Heart rate [3] was 228±17 beats/min. The “Left ventricle developed pressure” value [3] was 151±19 mmHg, the Coronary flow rate [4] was 6 ± 1 mL/min/g and the Heart rate [4] was 220 ± 10 beats/min. The “Left ventricle developed pressure” value [4] was 172 ± 26 mmHg, the Coronary flow rate (PRE DRUG, Tpo 0.01 ng/ml group) was 6 ± 1 mL/min/g and the Heart rate (PRE DRUG, Tpo 0.01 ng/ml group) was 225 ± 31 beats/min. For the same substance, the “Left ventricle developed pressure” value (PRE DRUG, Tpo 0.01 ng/ml group) was 130 ± 13 mmHg, the Coronary flow rate (PRE DRUG, Tpo 0.1 ng/ml group) was 5 ± 1 mL/min/g and the Heart rate (PRE DRUG, Tpo 0.1 ng/ml group) was 228 ± 17 beats/min. The “Left ventricle developed pressure” value (PRE DRUG, Tpo 0.1 ng/ml group) was 120 ± 15 mmHg, the Coronary flow rate (PRE DRUG, Tpo 1.0 ng/ml group) was 6 ± 1 mL/min/g and the Heart rate (PRE DRUG, Tpo 1.0 ng/ml group) was 240±34 beats/min. The “Left ventricle developed pressure” value (PRE DRUG, Tpo 1.0 ng/ml group) was 119±15 mmHg, the Coronary flow rate (PRE DRUG, Tpo 10.0 ng/ml group) was 6 ± 1 mL/min/g and the Heart rate (PRE DRUG, Tpo 10.0 ng/ml group) was 226 ± 29 beats/min. For the same substance, the “Left ventricle developed pressure” value (PRE DRUG, Tpo 10.0 ng/ml group) was 134 ± 13 mmHg, the Coronary flow rate [5] was 3 ± 1 mL/min/g and the Heart rate [5] was 184 ± 31 beats/min. For the same substance, the “Left ventricle developed pressure” value [5] was 52 ± 9 mmHg, the Coronary flow rate [6] was 3 ± 1 mL/min/g and the Heart rate [6] was 197 ± 36 beats/min. For the same substance, the “Left ventricle developed pressure” value [6] was 64 ± 11 mmHg, the Coronary flow rate [7] was 4 ± 1 mL/min/g and the Heart rate [7] was 204 ± 41 beats/min. For the same substance, the “Left ventricle developed pressure” value [7] was 62 ± 8 mmHg, the Coronary flow rate [8] was 4 ± 1 mL/min/g and the Heart rate [8] was 183 ± 16 beats/min. The “Left ventricle developed pressure” value [8] was 64 ± 10 mmHg, the “Recovery of coronary flow rate” value (Tpo 1.0 ng/ml) was “unaffected” and the “Recovery of heart rate” value (Tpo 1.0 ng/ml, untreated hearts 94±6%) was 85±7 % of pre-ischemic values. The “Optimal concentration of Tpo that afforded maximum reduction of infarct size” value [9] was 1.0 ng/mL, the “Optimal concentration that afforded maximal recovery of post-ischemic ventricular developed pressure” value [9] was 1.0 ng/mL and the “Recovery of left ventricular developed pressure following ischemia and reperfusion” value (bell-shaped concentration-dependent, Tpo 0.01-10.0 ng/ml) was “increased”.

Reference: patent US8518883B2, “Method of reducing deleterious effects of ischemia by administration of a thrombopoietin receptor ligand” (MCW Research Foundation, Inc., priority 2006, dated 2013)
